One experiment concerns the target AChE (electric eel) (Electrophorus electricus, UniProt O42275). Description: Ellman assay, 96-well, […] nm. The experiment is classed as biochemical. (In general: Ellman's reagent forms a yellow product with free thiols.)
A further experiment concerns the target T1, BuChE (equine serum) (Equus caballus, UniProt P81908).
T1 construct: gene BCHE
As to the kind of experiment: Ellman assay, 96-well, […] nm. The experiment is classed as biochemical.

SMILES strings stand for the structures. Like-named read-outs stand apart in the source and are kept apart here.

The results in this text go back to publication PMC6149889, “Synthesis, Analysis, Cholinesterase-Inhibiting Activity and Molecular Modelling Studies of 3-(Dialkylamino)-2-hydroxypropyl 4-[(Alkoxy-carbonyl)amino]benzoates and Their Quaternary Ammonium Salts” (Molecules : A Journal of Synthetic Chemistry and Natural …, 2017).

T1 sequence (P81908 whole entry): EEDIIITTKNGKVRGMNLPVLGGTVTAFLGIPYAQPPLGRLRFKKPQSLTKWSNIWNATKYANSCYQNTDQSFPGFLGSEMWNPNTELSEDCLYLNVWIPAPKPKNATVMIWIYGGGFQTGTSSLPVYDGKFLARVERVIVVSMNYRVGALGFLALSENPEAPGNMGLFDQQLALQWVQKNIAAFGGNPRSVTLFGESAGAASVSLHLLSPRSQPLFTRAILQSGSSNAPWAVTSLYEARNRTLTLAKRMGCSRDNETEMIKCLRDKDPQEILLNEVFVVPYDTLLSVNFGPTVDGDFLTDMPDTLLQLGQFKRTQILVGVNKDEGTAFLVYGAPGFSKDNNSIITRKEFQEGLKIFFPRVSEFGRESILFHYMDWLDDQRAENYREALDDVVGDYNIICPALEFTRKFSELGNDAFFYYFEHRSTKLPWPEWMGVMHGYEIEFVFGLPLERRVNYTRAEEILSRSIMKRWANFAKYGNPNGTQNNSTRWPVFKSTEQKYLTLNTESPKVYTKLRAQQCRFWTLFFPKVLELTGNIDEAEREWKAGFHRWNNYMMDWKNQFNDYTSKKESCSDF
AChE (electric eel), sequence (O42275 24-633): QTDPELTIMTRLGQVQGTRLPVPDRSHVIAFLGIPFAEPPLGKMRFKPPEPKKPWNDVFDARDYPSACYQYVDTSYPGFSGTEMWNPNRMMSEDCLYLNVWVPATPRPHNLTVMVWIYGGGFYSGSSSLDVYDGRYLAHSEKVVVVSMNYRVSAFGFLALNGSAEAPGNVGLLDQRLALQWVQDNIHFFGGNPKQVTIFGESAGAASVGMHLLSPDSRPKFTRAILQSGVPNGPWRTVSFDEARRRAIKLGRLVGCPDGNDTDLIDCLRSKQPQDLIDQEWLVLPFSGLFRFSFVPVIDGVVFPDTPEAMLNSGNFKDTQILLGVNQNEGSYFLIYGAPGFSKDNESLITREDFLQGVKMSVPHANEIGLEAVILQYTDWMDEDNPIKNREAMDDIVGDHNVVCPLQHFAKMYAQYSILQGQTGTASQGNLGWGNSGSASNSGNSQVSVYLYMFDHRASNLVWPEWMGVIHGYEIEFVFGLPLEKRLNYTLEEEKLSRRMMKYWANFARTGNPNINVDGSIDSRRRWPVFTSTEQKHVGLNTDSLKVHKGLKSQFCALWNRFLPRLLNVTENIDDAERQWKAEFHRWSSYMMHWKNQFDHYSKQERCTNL

Broadly, the IC50 is the concentration needed to halve the response being measured. On to `COC(=O)Nc1ccc(C(=O)OCC(O)C[N+](C)(C)C)cc1` (stereo not drawn) [6a, (2-Hydroxy-3-{4-[(methoxycarbonyl)amino]benzoyloxy}propyl)trimethylammonium iodide], for which the IC50 against AChE (electric eel) and against BuChE (equine serum) was above 100 µM each time.

On to `COC(=O)Nc1ccc(C(=O)OCC(O)CN(C)C)cc1` (stereo not drawn) [5a, (2-Hydroxy-3-{4-[(methoxycarbonyl)amino]benzoyloxy}propyl)dimethylammonium chloride], for which the IC50 at AChE (electric eel) and on BuChE (equine serum) was above 100 µM in each case.

On to `CCOC(=O)Nc1ccc(C(=O)OCC(O)C[N+](C)(C)C)cc1` (stereo not drawn) [6d, (3-{4-[(Ethoxycarbonyl)amino]benzoyloxy}-2-hydroxypropyl)trimethylammonium iodide], for which the IC50 at AChE (electric eel) (read-out: AChE IC50) and against BuChE (equine serum) was above 100 µM throughout.

As for `CC[N+](C)(C)CC(O)COC(=O)c1ccc(NC(=O)OC)cc1` (stereo not drawn) [6b, Ethyl(2-hydroxy-3-{4-[(methoxycarbonyl)amino]benzoyloxy}propyl)dimethylammonium iodide], the IC50 was 100 µM at AChE (electric eel) (read-out: AChE IC50) and above 100 µM against BuChE (equine serum).

Regarding `CCOC(=O)Nc1ccc(C(=O)OCC(O)CN(C)C)cc1` (stereo not drawn) [5b, (3-{4-[(ethoxycarbonyl)amino]benzoyloxy}-2-hydroxypropyl)dimethylammonium chloride], the IC50 against AChE (electric eel) and against BuChE (equine serum) was above 100 µM in each case.

For the compound `CCN(CC)CC(O)COC(=O)c1ccc(NC(=O)OC)cc1` (stereo not drawn) [5e, Diethyl-(2-hydroxy-3-{4-[(methoxycarbonyl)amino]benzoyloxy}propyl)ammonium chloride], the IC50 on AChE (electric eel) (read-out: AChE IC50) and on BuChE (equine serum) was above 100 µM in each case.

With `CCOC(=O)Nc1ccc(C(=O)OCC(O)C[N+](C)(CC)CC)cc1` (stereo not drawn) [6f, (3-{4-[(Ethoxycarbonyl)amino]benzoyloxy}-2-hydroxypropyl)diethylmethylammonium iodide], the IC50 is 56 µM at AChE (electric eel) (read-out: AChE IC50) and above 100 µM against BuChE (equine serum).

As to `CCCCOC(=O)Nc1ccc(C(=O)OCC(O)CN(C)C)cc1` (stereo not drawn) [5d, (3-{4-[(Butoxycarbonyl)amino]benzoyloxy}-2-hydroxypropyl)dimethylammonium chloride], the IC50 on AChE (electric eel) (read-out: AChE IC50) and against BuChE (equine serum) was above 100 µM throughout.

In the case of `CCCOC(=O)Nc1ccc(C(=O)OCC(O)C[N+](C)(CC)CC)cc1` (stereo not drawn) [6h, Diethyl (2-hydroxy-3-{4-[(propoxycarbonyl)amino]benzoyloxy}propyl)methylammonium iodide], the figures for the IC50 at AChE (electric eel) and against BuChE (equine serum) were 58 µM and above 100 µM, respectively.

`CCCOC(=O)Nc1ccc(C(=O)OCC(O)C[N+](C)(C)C)cc1` (stereo not drawn) [6g, (2-Hydroxy-3-{4-[(propoxycarbonyl)amino]benzoyloxy}propyl)trimethylammonium iodide]: the half-maximal inhibitory concentration (IC50) at AChE (electric eel) (read-out: AChE IC50) and against BuChE (equine serum) was above 100 µM in each case.

Turning to `CCCOC(=O)Nc1ccc(C(=O)OCC(O)CN(C)C)cc1` (stereo not drawn) [5c, (2-Hydroxy-3-{4-[(propoxycarbonyl)amino]benzoyloxy}propyl)dimethylammonium chloride], the IC50 on AChE (electric eel) (read-out: AChE IC50) and against BuChE (equine serum) was above 100 µM in each case.

For `CCOC(=O)Nc1ccc(C(=O)OCC(O)CN(CC)CC)cc1` (stereo not drawn) [5f, (3-{4-[(Ethoxycarbonyl)amino]benzoyloxy}-2-hydroxypropyl)diethylammonium chloride], the IC50 at AChE (electric eel) and at BuChE (equine serum) was above 100 µM throughout.

In the case of `CCOC(=O)Nc1ccc(C(=O)OCC(O)C[N+](C)(C)CC)cc1` (stereo not drawn) [6e, (3-{4-[(Ethoxycarbonyl)amino]benzoyloxy}-2-hydroxypropyl)(ethyl)dimethylammonium iodide], the IC50 against AChE (electric eel) and against BuChE (equine serum) was above 100 µM each time.

Consider `CCCCOC(=O)Nc1ccc(C(=O)OCC(O)C[N+](C)(C)C)cc1` (stereo not drawn) [6i, (3-{4-[(Butoxycarbonyl)amino]benzoyloxy}-2-hydroxypropyl)trimethylammonium iodide], for which the IC50 against AChE (electric eel) and against BuChE (equine serum) was above 100 µM throughout.

In the case of `COC(=O)Nc1ccc(C(=O)OCC(O)C[N+](C)(C)C(C)C)cc1` (stereo not drawn) [6c, (2-Hydroxy-3-{4-[(methoxycarbonyl)amino]benzoyloxy}propyl)dimethyl(propan-2-yl)ammonium iodide], the IC50 on AChE (electric eel) and on BuChE (equine serum) was above 100 µM throughout.
